Reference: the supplement of paper PMC6045584
± gives the standard deviation of the averaged measurements.

Columns and labels:
XAV-939 = compound: Oc1nc(-c2ccc(C(F)(F)F)cc2)nc2c1CSCC2 [XAV-939]; assay: surviving fraction relative to DMSO-only wells; higher = less growth inhibition; conditions: exposure time: 5 days
Method in brief: (§1)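 Inhibitors were tested at 0.5, 1, 5, 10, 50, 100, 500 and 1000 nM, applied continuously for five days beginning 24 hours after log-phase tumour cells were seeded at 250–500 per well in 384-well plates. CellTiter-Glo luminescence served as the viability measure, expressed as surviving fraction against the median of DMSO-only wells. Each line, screened three times, was kept only with replicate Pearson r >0.7 and median Z' >0.3.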

TEMOZOLOMIDE = compound: Cn1nnc2c(C(N)=O)ncn2c1=O [TEMOZOLOMIDE]; assay: as above; conditions: exposure time: 5 days
Method in brief: as §1

For 22RV1 PROSTATE, which surviving fraction (XAV-939; 0.5 nM) is on record?
Its surviving fraction is 1.02 ± 0.072.

What about the surviving fraction (XAV-939; 1 nM) of the same test system?
The surviving fraction was 1.05 ± 0.11.

And the surviving fraction (XAV-939; 5 nM)?
Its surviving fraction is 1.03 ± 0.032.

What about the surviving fraction (XAV-939; 10 nM) of the same test system?
Its surviving fraction is 1 ± 0.065.

And the surviving fraction (XAV-939; 50 nM)?
The surviving fraction was 0.934 ± 0.024.

And the surviving fraction (XAV-939; 100 nM)?
Its surviving fraction is 0.977 ± 0.024.

And the surviving fraction (XAV-939; 500 nM)?
The surviving fraction was 1 ± 0.12.

And the surviving fraction (XAV-939; 1000 nM)?
The surviving fraction was 1.03 ± 0.096.

What about the surviving fraction (TEMOZOLOMIDE; 0.5 nM) of the same test system?
The surviving fraction was 0.993 ± 0.017.

And the surviving fraction (TEMOZOLOMIDE; 1 nM)?
The surviving fraction was 1.09 ± 0.05.

And the surviving fraction (TEMOZOLOMIDE; 5 nM)?
Its surviving fraction is 1.03 ± 0.029.

And the surviving fraction (TEMOZOLOMIDE; 10 nM)?
Its surviving fraction is 1.08 ± 0.015.

And the surviving fraction (TEMOZOLOMIDE; 50 nM)?
The surviving fraction was 1.04 ± 0.057.

What about the surviving fraction (TEMOZOLOMIDE; 100 nM) of the same test system?
Its surviving fraction is 1.13 ± 0.096.

And the surviving fraction (TEMOZOLOMIDE; 500 nM)?
Its surviving fraction is 1.11 ± 0.048.

What about the surviving fraction (TEMOZOLOMIDE; 1000 nM) of the same test system?
Its surviving fraction is 1.09 ± 0.069.

What does the source list for 93VU HEADNECK?
surviving fraction (XAV-939; 0.5 nM): 0.98 ± 0.073; surviving fraction (XAV-939; 1 nM): 1.06 ± 0.071; surviving fraction (XAV-939; 5 nM): 1.11 ± 0.091; surviving fraction (XAV-939; 10 nM): 1.07 ± 0.077; surviving fraction (XAV-939; 50 nM): 1.15 ± 0.095; surviving fraction (XAV-939; 100 nM): 1.17 ± 0.066; surviving fraction (XAV-939; 500 nM): 1.05 ± 0.089; surviving fraction (XAV-939; 1000 nM): 0.907 ± 0.035; surviving fraction (TEMOZOLOMIDE; 0.5 nM): 1.02 ± 0.1; surviving fraction (TEMOZOLOMIDE; 1 nM): 1.04 ± 0.015; surviving fraction (TEMOZOLOMIDE; 5 nM): 1.09 ± 0.057; surviving fraction (TEMOZOLOMIDE; 10 nM): 1.03 ± 0.14; surviving fraction (TEMOZOLOMIDE; 50 nM): 1.11 ± 0.022; surviving fraction (TEMOZOLOMIDE; 100 nM): 1.17 ± 0.12; surviving fraction (TEMOZOLOMIDE; 500 nM): 1 ± 0.11; surviving fraction (TEMOZOLOMIDE; 1000 nM): 1.02 ± 0.081

How did the surviving fraction (XAV-939; 0.5 nM) turn out when 143B BONE was run?
Its surviving fraction is 0.977 ± 0.026.

And the surviving fraction (XAV-939; 1 nM)?
The surviving fraction was 1.02 ± 0.012.

And the surviving fraction (XAV-939; 5 nM)?
The surviving fraction was 0.952 ± 0.14.

What about the surviving fraction (XAV-939; 10 nM) of the same test system?
The surviving fraction was 1.02 ± 0.042.

What about the surviving fraction (XAV-939; 50 nM) of the same test system?
Its surviving fraction is 0.911 ± 0.15.

What about the surviving fraction (XAV-939; 100 nM) of the same test system?
The surviving fraction was 1.03 ± 0.044.

And the surviving fraction (XAV-939; 500 nM)?
The surviving fraction was 0.922 ± 0.069.

What about the surviving fraction (XAV-939; 1000 nM) of the same test system?
Its surviving fraction is 1.02 ± 0.023.

What about the surviving fraction (TEMOZOLOMIDE; 0.5 nM) of the same test system?
Its surviving fraction is 0.914 ± 0.096.

And the surviving fraction (TEMOZOLOMIDE; 1 nM)?
Its surviving fraction is 1.0035 ± 0.00071.

What about the surviving fraction (TEMOZOLOMIDE; 5 nM) of the same test system?
The surviving fraction was 0.961 ± 0.047.

And the surviving fraction (TEMOZOLOMIDE; 10 nM)?
The surviving fraction was 1 ± 0.033.

And the surviving fraction (TEMOZOLOMIDE; 50 nM)?
The surviving fraction was 1.01 ± 0.013.

What about the surviving fraction (TEMOZOLOMIDE; 100 nM) of the same test system?
Its surviving fraction is 1.02 ± 0.023.

And the surviving fraction (TEMOZOLOMIDE; 500 nM)?
The surviving fraction was 0.965 ± 0.03.

What about the surviving fraction (TEMOZOLOMIDE; 1000 nM) of the same test system?
Its surviving fraction is 1.04 ± 0.019.

What does the source list for A549 LUNG?
surviving fraction (XAV-939; 0.5 nM): 0.967 ± 0.022; surviving fraction (XAV-939; 1 nM): 0.985 ± 0.053; surviving fraction (XAV-939; 5 nM): 1.01 ± 0.035; surviving fraction (XAV-939; 10 nM): 1.02 ± 0.087; surviving fraction (XAV-939; 50 nM): 1.07 ± 0.022; surviving fraction (XAV-939; 100 nM): 1.12 ± 0.013; surviving fraction (XAV-939; 500 nM): 1.084 ± 0.0087; surviving fraction (XAV-939; 1000 nM): 1.14 ± 0.022; surviving fraction (TEMOZOLOMIDE; 0.5 nM): 1.03 ± 0.0082; surviving fraction (TEMOZOLOMIDE; 1 nM): 1.03 ± 0.04; surviving fraction (TEMOZOLOMIDE; 5 nM): 1.03 ± 0.037; surviving fraction (TEMOZOLOMIDE; 10 nM): 1.06 ± 0.013; surviving fraction (TEMOZOLOMIDE; 50 nM): 1.03 ± 0.024; surviving fraction (TEMOZOLOMIDE; 100 nM): 1.04 ± 0.032; surviving fraction (TEMOZOLOMIDE; 500 nM): 1.04 ± 0.044; surviving fraction (TEMOZOLOMIDE; 1000 nM): 1.06 ± 0.047

What does the source list for ASKA SYNOVIAL?
surviving fraction (XAV-939; 0.5 nM): 1.15 ± 0.11; surviving fraction (XAV-939; 1 nM): 1.17 ± 0.098; surviving fraction (XAV-939; 5 nM): 1.18 ± 0.028; surviving fraction (XAV-939; 10 nM): 1.23 ± 0.13; surviving fraction (XAV-939; 50 nM): 1.2 ± 0.073; surviving fraction (XAV-939; 100 nM): 1.14 ± 0.065; surviving fraction (XAV-939; 500 nM): 0.98 ± 0.068; surviving fraction (XAV-939; 1000 nM): 0.984 ± 0.023; surviving fraction (TEMOZOLOMIDE; 0.5 nM): 1.03 ± 0.078; surviving fraction (TEMOZOLOMIDE; 1 nM): 1.03 ± 0.066; surviving fraction (TEMOZOLOMIDE; 5 nM): 1.12 ± 0.044; surviving fraction (TEMOZOLOMIDE; 10 nM): 1.22 ± 0.12; surviving fraction (TEMOZOLOMIDE; 50 nM): 1.14 ± 0.082; surviving fraction (TEMOZOLOMIDE; 100 nM): 1.24 ± 0.02; surviving fraction (TEMOZOLOMIDE; 500 nM): 1.15 ± 0.055; surviving fraction (TEMOZOLOMIDE; 1000 nM): 1.2 ± 0.058
